US20120035196A1, “CARBOXYLIC ACID COMPOUND” (priority 2009, published 2012)

Columns and labels:
[1] = test system: Male ICR mice; assay: Normal mice single oral glucose tolerance test; type: in vivo; settings: Mus musculus, 0.5 h, orally 10 mg/kg 30 minutes before glucose loading (2 g/kg), 30 minutes after glucose loading, relative to control group, read-out: Blood glucose increase inhibition rate
Description: Test Method 3: Normal Mice Single Oral Glucose Tolerance Test
The present test was to examine the blood glucose increase inhibiting action of the test compound after glucose loading, using normal mice. Hereinafter, the test method will be shown.
Male ICR mice (6 weeks of age) after 1 week of acclimatization were subjected to overnight fasting and used as test animals. The test compound was made into a 0.01 M aqueous sodium hydroxide solution and orally administered at a dose of 10 mg/kg 30 minutes before the glucose loading (2 g/kg). A 0.01 M aqueous sodium hydroxide solution was administered to the control group. The blood glucose increase inhibitory ratio (%) after 30 minutes of glucose loading was calculated, relative to the control group.
When the compound of Example 72 described in Pamphlet of International Publication WO2005/087710 was orally administered at 10 mg/kg by the same method as the test method 3 above, the blood glucose increase inhibition rate was measured and found to be 9%, whereas when the compound was orally administered at 30 mg/kg, the blood glucose increase inhibition rate was 20%. […] Further, in the present test, a minimum administration amount showing a blood glucose increase inhibition rate of 20% or more or a minimum administration amount showing a significance (Dunnet multiple comparison test) relative to a control was taken as a minimum effective dose (MED).

[2] = molecular target: T1, human GPR40 (Homo sapiens, UniProt O14842, R211H); assay: Measurement of GPR40 agonistic activity (FLIPR, change in intracellular calcium concentration); type: cell-based; settings: CHO cell strain expressing human GPR40; changes in fluorescence intensity after 1 minute
T1 construct: expressed in transfected cells
T1 sequence (O14842 whole entry R211H): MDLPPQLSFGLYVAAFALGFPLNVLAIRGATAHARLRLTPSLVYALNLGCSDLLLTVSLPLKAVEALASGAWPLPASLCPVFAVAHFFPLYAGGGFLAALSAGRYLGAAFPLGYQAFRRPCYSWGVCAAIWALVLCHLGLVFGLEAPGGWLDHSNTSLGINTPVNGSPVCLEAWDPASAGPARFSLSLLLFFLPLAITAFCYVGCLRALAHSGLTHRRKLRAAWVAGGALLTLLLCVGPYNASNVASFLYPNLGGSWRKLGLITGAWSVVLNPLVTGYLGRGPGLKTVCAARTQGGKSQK
Excerpt: Test Method 1: Measurement of GPR40 Agonistic Activity i) Cloning of Human GPR40
A full-length sequence of GPR40 was obtained by PCR method using human genomic DNA (Clontech) as a template in accordance with the procedure shown below.
An oligonucleotide consisting of the base sequence represented by SEQ ID NO: 1 was used as the forward primer, and an oligonucleotide consisting of the base sequence represented by SEQ ID NO: 2 as the reverse primer. In this connection, a base sequence comprising a XbaI recognition region was added to the respective 5′-termini of the aforementioned forward primer and reverse primer. PCR was carried out in the presence of 5% dimethylsulfoxide (DMSO) using a Taq DNA polymerase (Ex Taq DNA polymerase; Takara Bio), by repeating 30 times of a cycle consisting of 94° C. (15 seconds)/55° C. (30 seconds)/72° C. (1 minute). As a result, a DNA fragment of about 0.9 kbp was amplified. This DNA fragment was digested with XbaI and then inserted into the XbaI site of a plasmid pEF-BOS-dhfr (Nucleic acids Research, 18, 5322, 1990), thereby obtaining a plasmid pEF-BOS-dhfr-GPR40.
The base sequence of the GPR40 gene in the pEF-BOS-dhfr-GPR40 was determined by the dideoxy terminator method using a DNA sequencer (ABI 377 DNA Sequencer, Applied Biosystems). The base sequence of the GPR40 gene was represented by the base sequence SEQ ID NO: 3. […]
ii) Preparation of GPR40 Stable Expression Cell
As the cell for expressing GPR40 protein, a CHO dhfr cell (a dihydrofolate reductase (dhfr) gene-deficient CHO cell) was used. Also, as the plasmid for expressing GPR40 protein, the plasmid pEF-BOS-dhfr-GPR40 obtained in the aforementioned i) was used. The CHO dhfr cell was inoculated into an αMEM medium containing 10% fetal calf serum (FCS) using a 6 well plate (Asahi Techno Glass) and cultured overnight to a confluence of 80 to 90%, and then 2 μg per well of the plasmid pEF-BOS-dhfr-GPR40 was gene-transferred using a transfection reagent (Lipofectamine 2000; Invitrogen). After 24 hours of culturing from the gene transfer, the cells were diluted and inoculated again. […] After 20 days of culturing, the formed colonies of cells were individually recovered and cultured to obtain CHO cells stably expressing GPR40. From these, cells having high reactivity for intrinsic ligands oleic acid and linoleic acid were selected. […]
iii) Measurement of GPR40 Agonistic Activity
The present test was measured by FLIPR (registered trademark, Molecular Devices) using a change in intracellular calcium concentration as the index. Hereinafter, the test method will be shown.
A CHO cell strain in which human GPR40 was expressed was inoculated into a 384 well black plate (Becton Dickinson) at 6×10^3 cells per well portion and cultured overnight in a CO2 incubator.
Using a Calcium-3 assay kit (Molecular Devices), one bottle of the phosphorescent pigment was dissolved in 10 ml of HBSS-HBEPES buffer (pH 7.4, 1×HBSS, 20 mM HEPES, Invitrogen). 35.68 mg of Probenecid (Sigma) was dissolved in 250 μl of 1 M NaOH and adjusted by adding 250 μl of the HBSS-HEPES buffer. A phosphorescent pigment solution was prepared by mixing 16 ml of HBSS-HEPES buffer, 640 μl of the phosphorescent pigment and 32 μl of probenecid per one plate. The medium was discarded from the plate, and the phosphorescent pigment solution was dispensed at 40 μl per well portion and then incubated at room temperature for 2 hours. Each compound to be tested was dissolved in DMSO and then diluted with HBSS-HEPES buffer and dispensed in 10 μl portions into the plate, thereby starting the reaction, and changes in the intracellular calcium concentration were measured by FLIPR. The EC50 value of each compound to be tested was calculated by a dose-response curve of changes in fluorescence intensity after 1 minute of the measurement.

Compound | inhibition in vivo at 10 mg/kg [1] [%] | EC50 [2] [nM]
Cc1cccc(C)c1-c1cccc(COc2ccc3c(c2)-c2ccccc2C3CC(=O)O)c1C (stereo not drawn) [Example 6, 0.5 calcium {3-[(2,2′,6′-trimethylbiphenyl-3-yl)methoxy]-9H-fluoren-9-yl}acetate] | 35 | 780
Cc1cc(OC[C@H](O)CO)cc(C)c1-c1cccc(COc2ccc3c(c2)OC2(CC2)C3CC(=O)O)c1C (stereo partly drawn) [Example 22, sodium {6-[(4′-{[(2R)-2,3-dihydroxypropyl]oxy}-2,2′,6′-trimethylbiphenyl-3-yl)methoxy]-3H-spiro[1-benzofuran-2,1′-cyclopropan]-3-yl}acetate] | 34 | 250
Cc1cc(OC[C@H](O)CO)cc(C)c1-c1cccc(COc2ccc3c(c2)CC2(CC2)C3CC(=O)O)c1C (stereo partly drawn) [Example 4, sodium {5′-[(4′-{[(2R)-2,3-dihydroxypropyl]oxy}-2,2′,6′-trimethylbiphenyl-3-yl)methoxy]-1′,3′-dihydrospiro[cyclopropan-1,2′-inden]-1′-yl}acetate] | 20 | 250
Cc1nc(OCCC(C)(C)O)nc(C)c1-c1cccc(COc2ccc3c(c2)CC2(CC2)C3CC(=O)O)c1C (stereo not drawn) [Example 8-12] | 24 | 590
Cc1cc(OCCC(C)(C)O)cc(C)c1-c1cccc(COc2ccc3c(c2)OC2(CC2)C3CC(=O)O)c1C (stereo not drawn) [Example 21, sodium (6-{[4′-(3-hydroxy-3-methylbutoxy)-2,2′,6′-trimethylbiphenyl-3-yl]methoxy}-3H-spiro[1-benzofuran-2,1′-cyclopropan]-3-yl)acetate] | 43 | 810
COCCOc1cc(C)c(-c2cccc(COc3ccc4c(c3)OC3(CC3)C4CC(=O)O)c2C)c(C)c1 (stereo not drawn) [Example 21-1] | 30 | 750
Cc1cc(OCC[C@H](O)CO)cc(C)c1-c1cccc(COc2ccc3c(c2)OC2(CC2)C3CC(=O)O)c1C (stereo partly drawn) [Example 22-3] | 38 | 470
Cc1cc(OCCO)cc(C)c1-c1cccc(COc2ccc3c(c2)OC2(CC2)C3CC(=O)O)c1C (stereo not drawn) [Example 25-3b] |  | 190
Cc1cc(OCCO)cc(C)c1-c1cccc(COc2ccc3c(c2)OC2(CC2)C3CC(=O)O)c1C (stereo not drawn) [Example 20, sodium (6-{[4′-(2-hydroxyethoxy)-2,2′,6′-trimethylbiphenyl-3-yl]methoxy}-3H-spiro[1-benzofuran-2,1′-cyclopropan]-3-yl)acetate] | 40 | 490
Cc1cc(OCCO)cc(C)c1-c1cccc(COc2ccc3c(c2)-c2ccccc2C3CC(=O)O)c1C (stereo not drawn) [Example 2, sodium (3-{[4′-(2-hydroxyethoxy)-2,2′,6′-trimethylbiphenyl-3-yl]methoxy}-9H-fluoren-9-yl)acetate] | 37 | 520
Cc1cc(OC[C@@H](O)CO)cc(C)c1-c1cccc(COc2ccc3c(c2)OC2(CC2)C3CC(=O)O)c1C (single isomer, unassigned) [Example 25-5b] |  | 260
Cc1cc(OCCO)cc(C)c1-c1cccc(COc2ccc3c(c2)OC2(CC2)C3CC(=O)O)c1C (stereo not drawn) [Example 25-3a] |  | 560
Cc1cc(OCC[C@@H](O)CO)cc(C)c1-c1cccc(COc2ccc3c(c2)OC2(CC2)C3CC(=O)O)c1C (stereo partly drawn) [Example 22-2] | 34 | 430
Cc1cc(OCCO)cc(C)c1-c1cccc(CNc2ccc3c(c2)CC2(CC2)C3CC(=O)O)c1C (single isomer, unassigned) [Example 25b, [5′-({[4′-(2-hydroxyethoxy)-2,2′,6′-trimethylbiphenyl-3-yl]methyl}amino)-1′,3′-dihydrospiro[cyclopropan-1,2′-inden]-1′-yl]acetic acid] | 33 | 210
Cc1cc(OCCC(C)(C)O)cc(C)c1-c1cccc(CNc2ccc3c(c2)CC2(CC2)C3CC(=O)O)c1C (stereo not drawn) [Example 2-2] | 34 | 790
Cc1cc(OCC[C@H](O)CO)cc(C)c1-c1cccc(COc2ccc3c(c2)OC2(CC2)C3CC(=O)O)c1C (single isomer, unassigned) [Example 25-7b] |  | 330
Cc1cc(OC[C@H](O)CO)cc(C)c1-c1cccc(COc2ccc3c(c2)-c2ccccc2C3CC(=O)O)c1C (stereo partly drawn) [Example 8, sodium {3-[(4′-{[(2R)-2,3-dihydroxypropyl]oxy}-2,2′,6′-trimethylbiphenyl-3-yl)methoxy]-9H-fluoren-9-yl}acetate] | 25 | 610
Cc1nc(OCCO)nc(C)c1-c1cccc(COc2ccc3c(c2)CC2(CC2)C3CC(=O)O)c1C (stereo not drawn) [Example 23, [5′-({3-[2-(2-hydroxyethoxy)-4,6-dimethylpyrimidin-5-yl]-2-methylbenzyl}oxy)-1′,3′-dihydrospiro[cyclopropan-1,2′-inden]-1′-yl]acetic acid] | 20 | 520
CCOCCOc1cc(C)c(-c2cccc(COc3ccc4c(c3)OC3(CC3)C4CC(=O)O)c2C)c(C)c1 (stereo not drawn) [Example 21-2] | 23 | 810
Cc1cc(OC[C@@H](O)CO)cc(C)c1-c1cccc(COc2ccc3c(c2)OC2(CC2)C3CC(=O)O)c1C (stereo partly drawn) [Example 22-1] | 35 | 270
COCCCOc1cc(C)c(-c2cccc(COc3ccc4c(c3)OC3(CC3)C4CC(=O)O)c2C)c(C)c1 (stereo not drawn) [Example 21-3] | 32 | 710
Cc1cc(OCC[C@H](O)CO)cc(C)c1-c1cccc(COc2ccc3c(c2)OC2(CC2)C3CC(=O)O)c1C (single isomer, unassigned) [Example 25-7a] |  | 490
Cc1cc(OC[C@@H](O)CO)cc(C)c1-c1cccc(COc2ccc3c(c2)OC2(CC2)C3CC(=O)O)c1C (single isomer, unassigned) [Example 25-5a] |  | 350
COCCOc1cc(C)c(-c2cccc(CNc3ccc4c(c3)CC3(CC3)C4CC(=O)O)c2C)c(C)c1 (stereo not drawn) [Example 8-3] | 21 | 610
